Laboratory results published in US20250145589A1, “PYRIDINE DERIVATIVE AND USE THEREOF” (SICHUAN HUIYU PHARMACEUTICAL CO., LTD., priority 2021, published 2025).
Read-outs that look alike come from different tables or passages of the source.

Legend:
PI3Kδ = PI3Kδ (Homo sapiens (Human), UniProt O00329); assay: Inhibition of PI3Kδ efficacy assay (ADP-Glo kinase assay); type: biochemical; settings: read-out: PI3Kδ inhibitory activity (IC50)
How it was run: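 Luminescent ADP-Glo readout of PI3Kδ: after a 60 min RT reaction with PI/ATP substrate, ATP depletion (40 min) and ADP detection (40 min) steps followed. Compounds tested as eight five-fold serial dilutions; inhibition rates fitted to log(inhibitor) vs. response, variable slope, for IC50.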

KRAS^G12C-SOS1 = KRAS^G12C-SOS1 (Homo sapiens (Human), UniProt P01116, G12C); assay: HTRF KRAS G12C/SOS1 binding assay; settings: Table 5
How it was run: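 Compound was serially diluted five-fold over eight points, with a 2 mM DMSO stock. After anti-tag-Tb3+ and anti-tag-XL665 were added, plates were incubated 3 h at 4 °C and read by HTRF (ex 337 nm, em 620/665 nm ratio). IC50 values come from four-parameter variable-slope fits.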

[1] = tested on: NCI-H358 cells (KRAS G12C mutant); assay: NCI-H358 cell proliferation inhibition (CellTiter-Glo); type: cell-based; settings: H358 cells (G12C mutation), 3 days, Table 6, read-out: NCI-H358 (IC50)
[2] = tested on: MIA PaCa-2 cells (KRAS G12C mutant); assay: MIA PaCa-2 cell anti-proliferation (CellTiter-Glo); type: cell-based
How it was run: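 Viable-cell luminescence (CellTiter-Glo, ≥30 min at 25 °C) measured after a 3-day, 37 °C exposure to compounds at 9 points, 4-fold spaced, in DMEM containing 10% FBS plus 2.5% horse serum. IC50 derived versus no-inhibitor wells.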

[3] = tested on: NCI-H358-AMGR drug-resistant cell line; assay: NCI-H358-AMGR drug-resistant cell proliferation inhibitory activity test; type: cell-based; settings: NCI-H358-AMGR drug-resistant cells, 3 days incubation, CellTiter-Glo
How it was run: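 Luminescent CellTiter-Glo read-out after 3-day, 37° C compound exposure (8 points, 5-fold series) of AMG510-resistant NCI-H358 cells plated at 4×10^3 per well.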

[4] = Homo sapiens, 72 h, MIA Paca-2 cells, 3 days, Table 7, read-out: MIA PaCa-2 (IC50)

Sequence of PI3Kδ (O00329 whole entry): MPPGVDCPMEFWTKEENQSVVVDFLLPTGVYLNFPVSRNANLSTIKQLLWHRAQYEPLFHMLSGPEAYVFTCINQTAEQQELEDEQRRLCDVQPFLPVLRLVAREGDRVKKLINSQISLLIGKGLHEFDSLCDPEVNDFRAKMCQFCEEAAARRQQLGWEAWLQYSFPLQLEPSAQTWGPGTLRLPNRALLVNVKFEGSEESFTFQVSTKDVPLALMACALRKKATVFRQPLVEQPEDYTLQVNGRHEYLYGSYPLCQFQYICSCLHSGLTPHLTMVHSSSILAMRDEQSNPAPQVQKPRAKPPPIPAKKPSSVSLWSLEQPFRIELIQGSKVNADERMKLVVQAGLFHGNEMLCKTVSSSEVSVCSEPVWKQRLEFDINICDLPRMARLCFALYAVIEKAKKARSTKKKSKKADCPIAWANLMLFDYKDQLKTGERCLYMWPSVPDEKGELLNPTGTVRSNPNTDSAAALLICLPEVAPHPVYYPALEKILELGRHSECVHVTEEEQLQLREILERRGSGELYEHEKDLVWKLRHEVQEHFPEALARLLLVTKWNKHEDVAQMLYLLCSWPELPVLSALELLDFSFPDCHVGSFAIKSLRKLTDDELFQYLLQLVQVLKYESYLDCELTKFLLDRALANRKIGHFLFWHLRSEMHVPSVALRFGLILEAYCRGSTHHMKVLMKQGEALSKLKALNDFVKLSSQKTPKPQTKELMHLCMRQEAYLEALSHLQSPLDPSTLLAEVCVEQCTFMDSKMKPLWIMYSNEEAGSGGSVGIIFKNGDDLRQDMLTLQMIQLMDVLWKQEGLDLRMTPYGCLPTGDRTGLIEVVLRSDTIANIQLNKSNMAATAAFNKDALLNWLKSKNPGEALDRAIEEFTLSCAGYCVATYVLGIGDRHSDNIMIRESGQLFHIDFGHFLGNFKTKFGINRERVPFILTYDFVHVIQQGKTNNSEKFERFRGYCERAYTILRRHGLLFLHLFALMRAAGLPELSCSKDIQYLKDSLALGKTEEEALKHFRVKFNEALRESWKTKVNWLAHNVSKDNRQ
Sequence of PI3Kδ (P27986 whole entry partner): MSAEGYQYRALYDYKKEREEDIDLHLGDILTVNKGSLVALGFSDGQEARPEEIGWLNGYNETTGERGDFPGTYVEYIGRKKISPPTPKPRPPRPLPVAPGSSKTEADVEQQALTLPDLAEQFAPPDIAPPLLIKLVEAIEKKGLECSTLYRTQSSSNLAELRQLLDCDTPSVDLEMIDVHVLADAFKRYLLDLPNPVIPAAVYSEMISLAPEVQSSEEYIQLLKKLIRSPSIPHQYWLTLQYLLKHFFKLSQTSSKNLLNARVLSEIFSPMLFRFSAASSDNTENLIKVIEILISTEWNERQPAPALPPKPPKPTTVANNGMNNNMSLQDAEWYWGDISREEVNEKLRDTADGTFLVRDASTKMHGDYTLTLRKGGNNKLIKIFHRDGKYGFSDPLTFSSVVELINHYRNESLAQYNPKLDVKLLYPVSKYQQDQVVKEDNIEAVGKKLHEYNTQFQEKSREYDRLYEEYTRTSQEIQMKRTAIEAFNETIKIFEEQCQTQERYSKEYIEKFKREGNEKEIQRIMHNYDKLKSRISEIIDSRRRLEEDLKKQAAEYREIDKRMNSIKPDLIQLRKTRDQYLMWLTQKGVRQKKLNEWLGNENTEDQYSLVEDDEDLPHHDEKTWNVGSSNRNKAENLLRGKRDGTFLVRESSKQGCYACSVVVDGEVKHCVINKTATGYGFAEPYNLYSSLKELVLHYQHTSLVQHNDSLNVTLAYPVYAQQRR
Sequence of KRAS^G12C-SOS1 (P01116-2 other isoform, or with tags, fused parts or gaps G12C): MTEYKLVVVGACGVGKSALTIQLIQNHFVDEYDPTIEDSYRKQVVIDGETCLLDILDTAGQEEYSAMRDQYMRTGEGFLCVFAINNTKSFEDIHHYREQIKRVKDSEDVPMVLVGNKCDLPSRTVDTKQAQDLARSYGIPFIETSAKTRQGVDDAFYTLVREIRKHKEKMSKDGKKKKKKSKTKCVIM

| Compound | IC50 (PI3Kδ; Table 2) | IC50 (KRAS^G12C-SOS1) | IC50 ([1]; Homo sapiens, NCI-H358, 72 h) | IC50 [2, 4] | IC50 ([3]; 72 h) | IC50 [1] | IC50 ([2]; MIA Paca-2 cells, 3 days, Table 7, read-out: MIA PaCa-2 (IC50)) | IC50 [3] | IC50 ([2]; Homo sapiens, MIA PaCa-2, 72 h, read-out: MIA PaCa-2 (IC50, nM)) | IC50 (PI3Kδ; Table 3) | IC50 (PI3Kδ; Table 4) |
| --- | --- | --- | --- | --- | --- | --- | --- | --- | --- | --- | --- |
| COc1ncc(-c2ccc3ncnc(N4C[C@@H](C)N(C(=O)/C=C/C(C)=O)C[C@@H]4C)c3c2)cc1NS(=O)(=O)c1c(F)cccc1F [Example 51, N-(5-(4-((2S,5R)-2,5-dimethyl-4-((E)-4-oxopent-2-enoyl)piperazin-1-yl)quinazolin-6-yl)-2-methoxypyridin-3-yl)-2,6-difluorobenzene-sulfonamide] | 0.0192 µM | 0.942 µM | 0.0487 µM | 50.7 nM | 0.061 µM | – | – | – | – | – | – |
| COc1ncc(-c2ccc3ncnc(N4CCN(C(=O)/C=C/C(C)=O)CC4)c3c2)cc1NS(=O)(=O)c1ccccc1F [Example 91, (E)-2-fluoro-N-(2-methoxy-5-(4-(4-(4-oxopent-2-enoyl)piperazin-1-yl)quinazolin-6-yl)pyridin-3-yl)benzenesulfonamide] | 0.0615 µM | 0.173 µM | 0.0178 µM | 30.7 nM | 0.0839 µM | – | – | – | – | – | – |
| COc1ncc(-c2ccc3ncnc(N4CCN(C(=O)/C=C/C(C)=O)CC4)c3c2)cc1NS(=O)(=O)c1ccc(F)cc1 [Example 92, (E)-4-fluoro-N-(2-methoxy-5-(4-(4-(4-oxopent-2-enoyl)piperazin-1-yl)quinazolin-6-yl)pyridin-3-yl)benzenesulfonamide] | 0.0511 µM | 0.369 µM | 0.0167 µM | 31 nM | 0.111 µM | – | – | – | – | – | – |
| COc1ncc(-c2ccc3ncnc(N4CCN(C(=O)/C=C/C(C)=O)CC4)c3c2)cc1NS(=O)(=O)c1ccccc1C [Example 93, (E)-N-(2-methoxy-5-(4-(4-(4-oxopent-2-enoyl)piperazin-1-yl)quinazolin-6-yl)pyridin-3-yl)-2-methylbenzenesulfonamide] | 0.0729 µM | 0.344 µM | 0.018 µM | 39.4 nM | 0.0693 µM | – | – | – | – | – | – |
| COc1ncc(-c2ccc3ncnc(N4CCN(C(=O)/C=C/C(C)=O)CC4)c3c2)cc1NS(=O)(=O)c1cc(F)ccc1F [Example 94, (E)-2,5-difluoro-N-(2-methoxy-5-(4-(4-(4-oxopent-2-enoyl)piperazin-1-yl)quinazolin-6-yl)pyridin-3-yl)benzenesulfonamide] | 0.0567 µM | 0.189 µM | 0.0625 µM | 65.9 nM | 0.0652 µM | – | – | – | – | – | – |
| COc1ncc(-c2ccc3ncnc(N4CCN(C(=O)/C=C/C(C)=O)CC4)c3c2)cc1NS(=O)(=O)c1c(F)cc(F)cc1F [Example 99, (E)-2,4,6-trifluoro-N-(2-methoxy-5-(4-(4-(4-oxopent-2-enoyl)piperazin-1-yl)quinazolin-6-yl)pyridin-3-yl)benzenesulfonamide] | 0.0079 µM | 0.188 µM | 0.0096 µM | 16.7 nM | 0.0652 µM | – | – | – | – | – | – |
| COc1ncc(-c2ccc3ncnc(N4CCC5(CC4)CN(C(=O)/C=C/C(C)=O)C5)c3c2)cc1NS(=O)(=O)c1c(F)cc(F)cc1F [Example 101, (E)-2,4,6-trifluoro-N-(2-methoxy-5-(4-(2-(4-oxopent-2-enoyl)-2,7-diazaspiro[3.5]nonan-7-yl)quinazolin-6-yl)pyridin-3-yl)benzenesulfonamide] | 0.0336 µM | 0.198 µM | 0.0116 µM | 11.6 nM | 0.0283 µM | – | – | – | – | – | – |
| COc1ncc(-c2ccc3ncnc(N4CCN(C(=O)/C=C/C(C)=O)CC4)c3c2)cc1NS(=O)(=O)c1c(F)cncc1F [Example 102, (E)-3,5-difluoro-N-(2-methoxy-5-(4-(4-(4-oxopent-2-enoyl)piperazin-1-yl)quinazolin-6-yl)pyridin-3-yl)pyridine-4-sulfonamide] | 0.0328 µM | 0.141 µM | 0.073 µM | 142 nM | 0.516 µM | – | – | – | – | – | – |
| CCOc1ncc(-c2ccc3ncnc(N4CCN(C(=O)/C=C/C(C)=O)CC4)c3c2)cc1NS(=O)(=O)c1ccc(F)cc1F [Example 109, (E)-N-(2-ethoxy-5-(4-(4-(4-oxopent-2-enoyl)piperazin-1-yl)quinazolin-6-yl)pyridin-3-yl)-2,4-difluorobenzenesulfonamide] | 0.0489 µM | 0.499 µM | 0.0638 µM | 94.2 nM | 0.113 µM | – | – | – | – | – | – |
| COc1ncc(-c2ccc3ncnc(N4CCN(C(=O)/C=C/C(C)=O)CC4)c3c2)cc1NS(=O)(=O)c1ccc(C)cc1F [Example 111] | 0.0232 µM | 0.364 µM | – | – | – | 0.0158 µM | 44.4 nM | 0.118 µM | – | – | – |
| COc1ncc(-c2ccc3ncnc(N4CCN(C(=O)/C=C/C(C)=O)[C@@H](CC#N)C4)c3c2)cc1NS(=O)(=O)c1c(F)cccc1F [Example 116, (S,E)-N-(5-(4-(3-(cyanomethyl)-4-(4-oxopent-2-enoyl)piperazin-1-yl)quinazolin-6-yl)-2-methoxypyridin-3-yl)-2,6-difluorobenzenesulfonamide] | 0.027 µM | 1.57 µM | 0.0959 µM | 107 nM | 0.232 µM | – | – | – | – | – | – |
| COc1ncc(-c2ccc3ncnc(N4CCN(C(=O)/C=C/C(C)=O)CC4)c3c2)cc1NS(=O)(=O)c1c(F)cccc1C#N [Example 122, (E)-2-cyano-6-fluoro-N-(2-methoxy-5-(4-(4-(4-oxopent-2-enoyl)piperazin-1-yl)quinazolin-6-yl)pyridin-3-yl)benzenesulfonamide] | 0.0047 µM | 0.145 µM | 0.0479 µM | – | 0.128 µM | – | – | – | 106 nM | – | – |
| COc1ncc(-c2ccc3ncnc(N4CCN(C(=O)/C=C/C(C)=O)CC4)c3c2)cc1NS(=O)(=O)c1ccc(C(F)(F)F)cc1F [Example 124, (E)-2-fluoro-N-(2-methoxy-5-(4-(4-(4-oxopent-2-enoyl)piperazin-1-yl)quinazolin-6-yl)pyridin-3-yl)-4-(trifluoromethyl)benzenesulfonamide] | 0.0614 µM | 0.73 µM | 0.0197 µM | 58.4 nM | 0.0855 µM | – | – | – | – | – | – |
| COc1ncc(-c2ccc3ncnc(N4CCN(C(=O)/C=C/C(C)=O)CC4)c3n2)cc1NS(=O)(=O)c1c(F)cccc1F [Example 131, (E)-2,6-difluoro-N-(2-methoxy-5-(4-(4-(4-oxopent-2-enoyl)piperazin-1-yl)pyrido[3,2-d]pyrimidin-6-yl)pyridin-3-yl)benzenesulfonamide] | – | 0.2 µM | 0.0052 µM | 25 nM | 0.0191 µM | – | – | – | – | 0.0137 µM | – |
| COc1ncc(-c2ccc3ncnc(N4C5CCC4CN(C(=O)/C=C/C(C)=O)C5)c3c2)cc1NS(=O)(=O)c1ccc(F)cc1F [Example 144, 2,4-difluoro-N-(2-methoxy-5-(4-(3-((E)-4-oxopent-2-enoyl)-3,8-diazabicyclo[3.2.1]octan-8-yl)quinazolin-6-yl)pyridin-3-yl)benzenesulfonamide] | – | 0.39 µM | 0.0478 µM | 58.7 nM | 0.0431 µM | – | – | – | – | – | 0.0134 µM |
| COc1ncc(-c2ccc3ncnc(N4CC5CCC(C4)N5C(=O)/C=C/C(C)=O)c3c2)cc1NS(=O)(=O)c1c(F)cccc1F [Example 145, 2,6-difluoro-N-(2-methoxy-5-(4-(8-((E)-4-oxopent-2-enoyl)-3,8-diazabicyclo[3.2.1]octan-3-yl)quinazolin-6-yl)pyridin-3-yl)benzenesulfonamide] | – | 0.2 µM | 0.0362 µM | 77.2 nM | 0.223 µM | – | – | – | – | – | 0.0238 µM |
| COc1ncc(-c2ccc3ncnc(N4CCC5(CC4)CN(C(=O)/C=C/C(C)=O)C5)c3c2)cc1NS(=O)(=O)c1ccccc1F [Example 150, (E)-2-fluoro-N-(2-methoxy-5-(4-(2-(4-oxopent-2-enoyl)-2,7-diazaspiro[3.5]nonan-7-yl)quinazolin-6-yl)pyridin-3-yl)benzenesulfonamide] | – | 0.236 µM | 0.0164 µM | 58.5 nM | 0.112 µM | – | – | – | – | – | 0.0107 µM |
| COc1ncc(-c2ccc3ncnc(N4CCN(C(=O)/C=C/C(C)=O)C[C@@H]4C)c3c2)cc1NS(=O)(=O)c1ccccc1F [Example 152, (S,E)-2-fluoro-N-(2-methoxy-5-(4-(2-methyl-4-(4-oxopent-2-enoyl)piperazin-1-yl)quinazolin-6-yl)pyridin-3-yl)benzenesulfonamide] | – | 0.175 µM | 0.0298 µM | 68.8 nM | 0.0621 µM | – | – | – | – | – | 0.0155 µM |
| COc1ncc(-c2ccc3ncnc(N4CCN(C(=O)/C=C/C(C)=O)C[C@@H]4C)c3c2)cc1NS(=O)(=O)c1ccc(F)cc1 [Example 153, (S,E)-4-fluoro-N-(2-methoxy-5-(4-(2-methyl-4-(4-oxopent-2-enoyl)piperazin-1-yl)quinazolin-6-yl)pyridin-3-yl)benzenesulfonamide] | – | 0.21 µM | 0.0598 µM | 56.7 nM | 0.1 µM | – | – | – | – | – | 0.0127 µM |
